Assay results from patent US20170145002A1, “DEUTERATED ISOXAZOLE DERIVATIVES AND THEIR USE AS METABOTROPIC GLUTAMATE RECEPTOR POTENTIATORS” (AstraZeneca AB, priority 2015, published 2017).

Legend:
[1] = Metabolic stability and intrinsic clearance in rat hepatocytes; format: in vitro ADME; conditions: cryopreserved rat hepatocytes 1.0×10^6 viable cells/mL, 37° C., up to 120 minutes; read-out: Rat Hepatocytes Median t1/2
Experimental: Stock solutions (10 mM) of Compounds A, B, C, D and of control compounds were prepared in the appropriate solvent (DMSO). The L-15 Medium was placed in a 37° C. water bath, and allowed to warm for at least 15 minutes prior to use. Acetonitrile (80 μL) was added to each well of the 96-well plate (quenching plate).
In a new 96-well plate, the solutions of the above compounds and of the control compounds were diluted to 100 μM by combining 198 μL of acetonitrile and 2 μL of each stock solutions. A vial of cryopreserved rat hepatocytes was removed from storage, while ensuring that the vial remain at cryogenic temperatures until thawing process ensued. As quickly as possible, the cells were thawed by placing the vial in a 37° C. water bath and gently shaking the vial. The vial remained in the water bath until all ice crystals had dissolved and were no longer visible. After thawing was completed, the vial was sprayed with 70% ethanol, and transferred into a biosafety cabinet. The vial was opened and the content poured into a 50 mL conical tube containing L-15 Medium. The vial was washed twice. The 50 mL conical tube was placed in a centrifuge and spun at 50 g for 3 minutes (room temperature). The L-15 medium was aspirated. A small volume of buffer (˜200 μL) was added and the pellet was re-suspended. The tube was filled with buffer to a volume of 50 mL and centrifugation was repeated. Upon completion of spin, the L-15 Medium was aspirated and the hepatocytes re-suspended in enough incubation medium to yield ˜1.5×10^6 cells/mL. Using Cellometer® Vision, the cells were counted and the viable cell density was determined. Cells with poor viability (<80% viability) were not acceptable for use. Cells were diluted with incubation medium to a working cell density of 1.0×10^6 viable cells/mL. Hepatocytes (247.5 μL) were transferred into each well of a 96-well cell culture plate. The plate was placed on an Eppendorf Thermomixer Comfort plate shaker to allow the hepatocytes to warm for 10 minutes.
Solutions (2.5 μL of 100 μM) of Compounds A, B, C, D and of the control compounds were added into an incubation well containing cells and mixed to achieve a homogenous suspension at 0.5 minutes, which when achieved, defined the 0.5 minute time point. At the 0.5 minute time point, the incubated mixture (20 μL) was transferred to wells in a “Quenching plate,” followed by vortexing. […]
All calculations were carried out using Microsoft Excel. Peak areas were determined from extracted ion chromatograms. The in vitro half-life (t1/2) of the parent compound was determined by regression analysis of the Ln percent parent disappearance vs. time curve.
The in vitro intrinsic clearance (in vitro Clint, in μL/min/10^6 cells) was determined from the slope value using the following equation: […]

[2] = Metabolic stability and intrinsic clearance in human liver microsomes (HLM); format: in vitro ADME; conditions: pooled human liver microsomes, NADPH, 37° C., 0.5-30 minutes; for microsomal CLint at 1 μM: read-out: Human Liver Microsomes Median CLint; for half-life at 1 μM: read-out: Human Liver Microsomes Median t1/2
Experimental: This assay was used to measure the in vitro metabolic stability of Compounds A, B, C and D of the application in pooled human liver microsomes. The concentration of parent compound in the reaction system for calculating intrinsic clearance of the compounds and estimating their stability in pooled human liver microsomes was evaluated by LC/MS/MS. 100 μmol/L solutions of each Compound A, B, C and D as well as 100 μmol/L solutions of each positive control compound (i.e., phenacetin, verapamil, diclofenac, imiprimine, benzydamine and metoprolol) were prepared by adding 2 μL of 10 mmol/L stock solution in DMSO to 198 μL of acetonitrile. A 1.1236 mg/mL HLM mixture was prepared by adding 1325 μL of 20 mg/mL HLM to 22260 μL of phosphate buffer. The HLM mixture (222.5 μL of the 1.1236 mg/mL mixture) and 25 μL of a 10 mM NADPH solution were added to the incubation plates. After mixing on a whirly mixer for 10 seconds, the incubation plates were pre-warmed at 37° C. for 8 minutes. The solutions of Compounds A, B, C and D (2.5 μL of the 100 μM solutions prepared before) as well as positive control solutions (2.5 μL of the 100 μM solutions prepared before) were added to the incubation plate. The incubation mixture was mixed on a whirly mixer for 10 seconds and incubation was carried out at 37° C. The reaction was quenched by transferring 20 μL of the incubated mixture at 0.5, 5, 10, 15, 20 and 30 minutes into the quenching plate containing 100 μL of cold acetonitrile. The quenching plates at 4000 rpm were centrifuged for 20 minutes, placed at 4 ° C. for 30 minutes, then re-centrifuged at 4000 rpm for 20 minutes to precipitate protein. The supernatant of each compound (40 μL) was transferred into a 96-well analysis plate. Compounds A, B, C and D were pooled together into one cassette, and pure water (160 μL) was added in each well. All incubations were performed in singlicate. API 4000 (AB sciex, USA) Ultra mass spectrometer was used to carry out the samples analysis in the MRM mode (MS/MS). Peak areas were determined from extracted ion chromatograms. Percentage of parent compound remaining was calculated from peak area of each compound or positive control. The slope value, k, was determined by linear regression of the natural logarithm of percent parent remaining vs. incubation time curve.
All calculations were carried out using Microsoft Excel. The in vitro half-life (in vitro t1/2) was determined from the slope value, wherein in vitro t1/2=−(0.693/k). Conversion of the in vitrot1/2 (in min) into the in vitro intrinsic clearance (in vitro CLint, in μL/min/mg proteins) was done by using the following equation:
in vitro CLint=(0.693/t1/2)*(volume of incubation (μL)/amount of proteins (mg)).

[3] = Pharmacokinetics after intravenous bolus in rats; format: in vivo; conditions: male Wistar rat, nominal dose 1.0 mg/kg, plasma
Experimental: The animals were single dosed via intravenous (IV) bolus to tail vein over approximately 5 seconds. The animals were not fasted prior to dosing. The single dose formulation samples were collected from middle of formulation and stored at 5±3° C. for potential analysis. Animals were evaluated during in-life phase.
The blood samples were centrifuged at 2000 g for 5 minutes at 4° C. to obtain plasma. Plasma samples were stored in polypropylene tubes, quickly frozen in ice box and kept at −80° C. Plasma samples were deprotainated by solvent precipitation. Concentration of Compounds A and D in plasma and tissue samples were analyzed using a LC-MS/MS method. WinNonlin version 6.2 will be used for pharmacokinetic parameters calculations. AUC was calculated using log trapezoidal method.

| microsomal CLint at 1 μM [2] [µL/min/mg] | half-life at 1 μM [2] [min] | AUC [3] [µM·h] | clearance [3] [mL/min/kg] | half-life [3] [min] | SMILES | half-life at 1 μM [1] [min] |
| --- | --- | --- | --- | --- | --- | --- |
| 9.5 | 73 | – | – | – | [2H]C1([2H])CN(C(=O)c2cc(-c3cc(Cl)c4c(c3)CN([C@@H](C)C3CC3)C4=O)on2)CC([2H])([2H])O1 [Compound B, (S)-7-chloro-2-(1-cyclopropylethyl)-5-(3-(morpholine-4-carbonyl-2,2,6,6-d4)isoxazol-5-yl)isoindolin-1-one] | 36.8 |
| 7 | 99.6 | – | – | – | [2H]C1([2H])COCC([2H])([2H])N1C(=O)c1cc(-c2cc(Cl)c3c(c2)CN([C@@H](C)C2CC2)C3=O)on1 [Compound C, (S)-7-chloro-2-(1-cyclopropylethyl)-5-(3-(morpholine-4-carbonyl-3,3,5,5-d4)isoxazol-5-yl)isoindolin-1-one] | 29.1 |
| 9.5 | 73.2 | 0.915 | 44.3 | 48.8 | C[C@@H](C1CC1)N1Cc2cc(-c3cc(C(=O)N4CCOCC4)no3)cc(Cl)c2C1=O [Compound D, (S)-7-chloro-2-(1-cyclopropylethyl)-5-(3-(morpholine-4-carbonyl)isoxazol-5-yl)isoindolin-1-one, reference compound] | 37.3 |
| < 3 | > 231 | 1.29 | 31.1 | 45.7 | [2H]C1([2H])OC([2H])([2H])C([2H])([2H])N(C(=O)c2cc(-c3cc(Cl)c4c(c3)CN([C@@H](C)C3CC3)C4=O)on2)C1([2H])[2H] [Compound A, (S)-7-chloro-2-(1-cyclopropylethyl)-5-(3-(morpholine-4-carbonyl-2,2,3,3,5,5,6,6-d8)isoxazol-5-yl)isoindolin-1-one] | 100 |
